Experimental data from US9642846B2, “Antifungal drugs” (GEORGETOWN UNIVERSITY, priority 2013, dated 2017).
Converted amounts (≈) assume the structure as drawn.

How the values were obtained:
[1] = system: A. fumigatus H11-20; experiment: MIC80 broth microdilution; type: cell-based; details: Aspergillus fumigatus, H1120, 80% growth inhibition, RPMI-1640
Text: (§1) Fluconazole, an ergosterol inhibitor, and the beta-1,3-glucan inhibitor micafungin served as controls (See Tables 1 and 2).
(§2) The minimum inhibitory concentrations resulting in 80% growth inhibition (MIC of multiple Candida species (Candida albicans, Candida tropicalis, Candida, guilliermondii, Candida glabrata, Candida lusitaniae, Candida parapsilois, Candida neoformans, Candida krusei, and Candida apicola) as well as Aspergillus fumigatus to a set of formula (II), (III), (IV), and (V) was determined in accordance with the guidelines in CLSI document M27-A2 (Clinical and Laboratory Standards Institute; Wayne, Pa.). The total volume of cells and drug was 100 μL per microtiter well, and each drug was diluted in RPMI to achieve final concentrations of 0.2-100 μg/ml. Uninoculated cultures were used as a reference standard. Stock inoculum suspensions were prepared from 24 hour cultures on YPD (yeast extract/peptone/dextrose) media at 30° C.
(§3) For MIC determinations, an inoculum of 1.0×10^3 cells of Candida and 2.0×10^3 cells of Aspergillus per well were used, and cells in diluted drugs were prepared in RPMI-1640 medium. MICs were determined both visually and spectrophotometrically at 24 hours and 48 h at 550 nm using a micro plate reader. The MIC80 endpoint was measured as the lowest drug concentration resulting in a reduction of growth of 80% or more compared with growth of the control.

[2] = system: MDR A. fumigatus; experiment: MIC80 broth microdilution; type: cell-based; details: Aspergillus fumigatus, 80% growth inhibition, RPMI-1640
Text: as §1, §2, §3

[3] = system: A. fumigatus AF293; experiment: MIC80 broth microdilution; type: cell-based; details: Aspergillus fumigatus, 80% growth inhibition, RPMI-1640
Text: as §1, §2, §3

[4] = system: C. neoformans JEC-21; experiment: MIC80 broth microdilution; type: cell-based, Candida neoformans; details: Cryptococcus neoformans, JEC21, 80% growth inhibition, RPMI-1640
Text: as §1, §2, §3

[5] = system: C. neoformans H99; experiment: MIC80 broth microdilution; type: cell-based, Candida neoformans; details: Cryptococcus neoformans, 80% growth inhibition, RPMI-1640
Text: as §1, §2, §3

[6] = system: C. glabrata; experiment: MIC80 broth microdilution; type: cell-based, Candida glabrata; details: Nakaseomyces glabratus, 80% growth inhibition, RPMI-1640
Text: as §1, §2, §3

[7] = system: C. guilliermondii; experiment: MIC80 broth microdilution; type: cell-based, Candida guilliermondii; details: Meyerozyma guilliermondii, 80% growth inhibition, RPMI-1640
Text: as §1, §2, §3

[8] = system: C. lusitaniae; experiment: MIC80 broth microdilution; type: cell-based, Candida lusitaniae; details: Clavispora lusitaniae, 80% growth inhibition, RPMI-1640
Text: as §1, §2, §3

[9] = system: NIH/3T3 Fibroblast cell; experiment: MTT toxicity assay; type: cell-based; details: MTT after 24 hours and 48 hours
Description: (§4) The MTT assay is a colorimetric assay that measures the reduction of yellow 3-(4,5-dimethythiazol-2-yl)-2,5-diphenyl tetrazolium bromide (MTT) by mitochondrial succinate dehydrogenase. The MIT enters the cells and passes into the mitochondria where it is reduced to an insoluble, dark purple, formazan product. The cells are then solubilized with an organic solvent (e.g., isopropanol) and the released, solubilized formazan reagent is measured spectrophotometrically. Since reduction of MTT can only occur in metabolically active cells, the level of activity is a measure of the viability of the cells.
(§5) Cells of the HepG2 liver cell, NIH/3T3 fibrolast cell, or 293T kidney cell were seeded in a 96 well plate. The plate was incubated overnight at 37° C. in a humidified incubator, 5% CO2. Compounds of formula (II), (III), (IV), (V), and (VI) were added to the plate. Different concentrations of drug were tested in triplicate along with a negative control. The final volume was adjusted to 100 μl per well. The plate was incubated overnight at 37° C. in a humidified incubator, 5% CO2. After 24 hours and 48 hours, MTT reagent (5 mg/ml, 10 μl/100 μl per well of the 96 well plate) was added and incubated at 37° C. for 3 hours. After 3 hours, 100 μl of the DMSO solution was added to each well and the plate was rocked at room temperature for 1 hour. The plate was then read on a plate reader at […]. The results are shown below in tables 1 and 2.

[10] = system: 293T kidney cell; experiment: MTT toxicity assay; type: cell-based; details: MTT after 24 hours and 48 hours
Description: as §4, §5

[11] = system: C. albicans (CaMDR); experiment: MIC80 broth microdilution; type: cell-based; details: Candida albicans, read-out: Activity (MIC80)
Text: as §1, §2, §3

[12] = system: C. albicans (SC5314); experiment: MIC80 broth microdilution; type: cell-based; details: Candida albicans, 80% growth inhibition, RPMI-1640, read at 24 and 48 h
Text: as §1, §2, §3

[13] = system: C. tropicalis; experiment: MIC80 broth microdilution; type: cell-based; details: Candida tropicalis, 80% growth inhibition, RPMI-1640
Text: as §1, §2, §3

[14] = system: C. krusei; experiment: MIC80 broth microdilution; type: cell-based, Candida krusei; details: Pichia kudriavzevii, 80% growth inhibition, RPMI-1640
Text: as §1, §2, §3

[15] = system: C. apicola; experiment: MIC80 broth microdilution; type: cell-based, Candida apicola; details: Starmerella apicola, 80% growth inhibition, RPMI-1640
Text: as §1, §2, §3

[16] = system: C. parapsilosis; experiment: MIC80 broth microdilution; type: cell-based, Candida parapsilosis; details: Lodderomyces parapsilosis, 80% growth inhibition, RPMI-1640
Text: as §1, §2, §3

[17] = system: HepG2 liver cell; experiment: MTT toxicity assay; type: cell-based, human; details: MTT after 24 hours and 48 hours
Description: as §4, §5

[18] = system: C. albicans (wild type); experiment: E-test of formula (II) and fluconazole; type: cell-based, Candida albicans; details: fluconazole E test strips on YPD plate, 48 h at 30° C.
Description: E test strips (Biomerieux) containing a graded series of fluconazole concentration are placed on a YPD plate that had been previously inoculated to confluency with C. albicans. The strip plate that was inoculated, is incubated for 48 h at 30° C. The zone of inhibition at the lowest concentration of fluconazole is read as the MIC. The results, shown in FIG. 2, indicate synergy between the compound of formula (II) and fluconazole.

CCC(C)n1ncn(-c2ccc(N3CCN(c4ccc(OCC5COC(Cn6cncn6)(c6ccc(Cl)cc6Cl)O5)cc4)CC3)cc2)c1=O (stereo not shown) [Itraconazole, reference compound]
MIC80 [1]: 0.5 µg/mL (≈ 0.709 µM) | MIC80 [2]: > 100 µg/mL | MIC80 [3]: 0.5 µg/mL (≈ 0.709 µM)

COc1cc2cc3c4cc5c(cc4cc[n+]3c(C)c2cc1OC)OCO5 [compound 160459]
MIC80 [4]: 0.5 µg/mL | MIC80 [5]: 8 µg/mL | MIC80 [6]: 0.5 µg/mL | MIC80 [7]: 4 µg/mL | MIC80 [8]: 1 µg/mL | toxicity (MTT) [9]: 80 µg/mL | toxicity (MTT) [10]: 60 µg/mL | MIC80 [1]: 4 µg/mL | MIC80 [11]: 0.1 µg/mL | MIC80 [12]: 4 µg/mL | MIC80 [2]: 4 µg/mL | MIC80 [3]: 4 µg/mL | MIC80 [13]: 4 µg/mL | MIC80 [14]: 4 µg/mL | MIC80 [15]: 4 µg/mL | MIC80 [16]: 8 µg/mL | toxicity (MTT) [17]: 50 µg/mL

OC(Cn1cncn1)(Cn1cncn1)c1ccc(F)cc1F [Fluconazole, reference compound]
MIC80 [4]: 2 µg/mL (≈ 6.53 µM) | MIC80 [5]: 4 µg/mL (≈ 13.1 µM) | MIC80 [6]: 2 µg/mL (≈ 6.53 µM) | MIC80 [7]: 2 µg/mL (≈ 6.53 µM) | MIC80 [8]: 2 µg/mL (≈ 6.53 µM) | MIC80 [11]: 32 µg/mL (≈ 104 µM) | MIC80 [12]: 0.25 µg/mL (≈ 0.816 µM) | MIC80 [13]: 0.5 µg/mL (≈ 1.63 µM) | MIC80 [14]: 32 µg/mL (≈ 104 µM) | MIC80 [15]: 0.25 µg/mL (≈ 0.816 µM) | MIC80 [16]: 1 µg/mL (≈ 3.27 µM)

Cc1c2cc3c(cc2cc2c4cc5c(cc4cc[n+]12)OCO5)OCO3 [compound 156627]
MIC80 [4]: < 0.2 µg/mL | MIC80 [5]: 1 µg/mL | MIC80 [6]: < 0.2 µg/mL | MIC80 [7]: 0.5 µg/mL | MIC80 [8]: < 0.2 µg/mL | toxicity (MTT) [9]: 40 µg/mL | toxicity (MTT) [10]: 25 µg/mL | MIC80 [1]: 0.5 µg/mL | MIC80 [11]: 0.05 µg/mL | MIC80 [12]: 0.5 µg/mL | MIC80 [2]: 0.5 µg/mL | MIC80 [3]: 0.5 µg/mL | MIC80 [13]: 0.5 µg/mL | interaction with fluconazole (E-test) [18]: synergy | MIC80 [14]: 0.5 µg/mL | MIC80 [15]: 0.5 µg/mL | MIC80 [16]: 1 µg/mL | toxicity (MTT) [17]: 25 µg/mL

COc1cc2cc[n+]3c(C)c4cc5c(cc4cc3c2cc1OC)OCO5 [compound 156624]
MIC80 [4]: 1 µg/mL | MIC80 [5]: 8 µg/mL | MIC80 [6]: 1 µg/mL | MIC80 [7]: 4 µg/mL | MIC80 [8]: 1 µg/mL | toxicity (MTT) [9]: >100 µg/mL | toxicity (MTT) [10]: 80 µg/mL | MIC80 [1]: 4 µg/mL | MIC80 [11]: 0.2 µg/mL | MIC80 [12]: 4 µg/mL | MIC80 [2]: 4 µg/mL | MIC80 [3]: 4 µg/mL | MIC80 [13]: 4 µg/mL | MIC80 [14]: 4 µg/mL | MIC80 [15]: 4 µg/mL | MIC80 [16]: 8 µg/mL | toxicity (MTT) [17]: 80 µg/mL

CCc1c2cc3c(cc2cc2c4cc5c(cc4cc[n+]12)OCO5)OCO3 [compound 157108]
MIC80 [4]: 0.2 µg/mL | MIC80 [5]: 2 µg/mL | MIC80 [6]: 0.2 µg/mL | MIC80 [7]: 2 µg/mL | MIC80 [8]: 0.2 µg/mL | toxicity (MTT) [9]: 100 µg/mL | toxicity (MTT) [10]: 70 µg/mL | MIC80 [1]: 1 µg/mL | MIC80 [11]: 0.2 µg/mL | MIC80 [12]: 1 µg/mL | MIC80 [2]: 1 µg/mL | MIC80 [3]: 1 µg/mL | MIC80 [13]: 2 µg/mL | MIC80 [14]: 2 µg/mL | MIC80 [15]: 1 µg/mL | MIC80 [16]: 2 µg/mL | toxicity (MTT) [17]: 64 µg/mL

COc1ccc2cc3c4cc5c(cc4cc[n+]3cc2c1OC)OCO5 [compound 403831]
MIC80 [4]: 0.5 µg/mL | MIC80 [5]: 0.5 µg/mL | MIC80 [6]: 0.25 µg/mL | MIC80 [7]: 1 µg/mL | MIC80 [8]: 0.5 µg/mL | toxicity (MTT) [9]: 96 µg/mL | toxicity (MTT) [10]: 80 µg/mL | MIC80 [1]: 1 µg/mL | MIC80 [11]: 0.1 µg/mL | MIC80 [12]: 1 µg/mL | MIC80 [2]: 1 µg/mL | MIC80 [3]: 1 µg/mL | MIC80 [13]: 1 µg/mL | MIC80 [14]: 2 µg/mL | MIC80 [15]: 1 µg/mL | MIC80 [16]: 2 µg/mL | toxicity (MTT) [17]: 80 µg/mL
